Measurements as given in PubChem BioAssay AID264 (DTP/NCI, 2004).
Several values for one entry are separate records, joined by “and”; a condition that tells them apart may be missing. Equal values may be shown once. Inconclusive results are not listed.

System: nude mice, LX-1 lung xenograft intrarenal, tumor weight T/C
Assay: NCI In Vivo Anticancer Drug Screen. Data for tumor model Human Lung LX-1 Xenograft (intrarenal inoculation) in NU/NU Swiss (nude) mice
Settings: endpoint: mean tumor weight change, higher = larger tumour
Outline: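 Activity was scored by measuring tumors in treated animals and in vehicle controls, then reporting the treated result as a fraction of the control result.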

[1] = dose: 100.0 mg/kg/injection, schedule: Q01DX010 (sc), vehicle: saline with Tween-80
[2] = dose: 200.0 mg/kg/injection, schedule: Q01DX010 (sc), vehicle: saline with Tween-80
[3] = dose: 75.0 mg/kg/injection, schedule: Q04DX003 (sc), vehicle: saline with Tween-80
[4] = dose: 150.0 mg/kg/injection, schedule: Q04DX003 (sc), vehicle: saline with Tween-80
[5] = dose: 300.0 mg/kg/injection, schedule: Q04DX003 (sc), vehicle: saline with Tween-80
[6] = dose: 600.0 mg/kg/injection, schedule: Q04DX003 (sc), vehicle: saline with Tween-80
[7] = dose: 100.0 mg/kg/injection, schedule: Q04DX003 (sc), vehicle: saline with Tween-80
[8] = dose: 200.0 mg/kg/injection, schedule: Q04DX003 (sc), vehicle: saline with Tween-80
[9] = dose: 400.0 mg/kg/injection, schedule: Q04DX003 (sc), vehicle: saline with Tween-80
[10] = dose: 800.0 mg/kg/injection, schedule: Q04DX003 (sc), vehicle: saline with Tween-80
[11] = dose: 1200.0 mg/kg/injection, schedule: Q04DX003 (sc), vehicle: saline with Tween-80
[12] = dose: 150.0 mg/kg/injection, schedule: Q04DX003 (sc), vehicle: Klucel (hydroxypropylcellulose) (HPC)
[13] = dose: 300.0 mg/kg/injection, schedule: Q04DX003 (sc), vehicle: Klucel (hydroxypropylcellulose) (HPC)

SMILES: CC(=O)Nc1ccc(C(=O)C=O)cc1
- T/C (dose: 25.0 mg/kg/injection, schedule: Q01DX010 (sc), vehicle: saline with Tween-80): 69 % of control
- T/C (dose: 50.0 mg/kg/injection, schedule: Q01DX010 (sc), vehicle: saline with Tween-80): 103 % of control
- T/C [1]: 35 % of control
- T/C [2]: 45 % of control

SMILES: COc1cc2c3c(cccc3c1)C(=O)N(CCN(C)C)C2=O
- T/C [3]: 98 % of control
- T/C [4]: 115 % of control
- T/C [5]: 53 % of control
- T/C [6]: 79 % of control

SMILES: COC1C(O)CC(OC2CC(OC3CC(O[C@@H]4C(=O)c5c(cc6cc(OC7CC(OC8CC(O)C(O)C(C)O8)C(O)C(C)O7)c(C)c(O)c6c5O)C[C@H]4[C@H](OC)C(=O)[C@@H](O)[C@@H](C)O)OC(C)C3O)OC(C)C2O)OC1C (some centres not stated)
- T/C (dose: 0.18 mg/kg/injection, schedule: Q01DX010 (sc), vehicle: saline): 62 % of control
- T/C (dose: 0.37 mg/kg/injection, schedule: Q01DX010 (sc), vehicle: saline): 32 % of control

SMILES: C[n+]1c(/C=C\C=C\N2CCCCC2)sc2ccccc21
- T/C (dose: 1.5 mg/kg/injection, schedule: Q04DX003 (sc), vehicle: Klucel (hydroxypropylcellulose) (HPC)): 52 % of control
- T/C (dose: 3.0 mg/kg/injection, schedule: Q04DX003 (sc), vehicle: Klucel (hydroxypropylcellulose) (HPC)): 83 % of control

SMILES: Nc1nc2ccc(NCc3ccc(C(=O)NC(CCC(=O)O)C(=O)O)cc3)cc2c(=O)[nH]1 (configuration not stated)
- T/C [7]: 94 % of control
- T/C [8]: 83 % of control
- T/C [9]: 109 % of control
- T/C [10]: 63 % of control

SMILES: O=C(NC1CCCCC1)OCc1c(COC(=O)NC2CCCCC2)c(-c2ccc(Cl)c(Cl)c2)n2c1CCC2
- T/C [5]: 88 % of control
- T/C [6]: 94 % of control
- T/C [11]: 104 % of control
- T/C (dose: 2400.0 mg/kg/injection, schedule: Q04DX003 (sc), vehicle: saline with Tween-80): 104 % of control

SMILES: CCCCOC(=O)/C=C(\Br)C(=O)OCCCC
- T/C [1]: 166 % of control
- T/C [2]: 281 % of control
- T/C (dose: 400.0 mg/kg/injection, schedule: Q01DX010 (sc), vehicle: saline with Tween-80): 251 % of control

SMILES: COC(=O)NC1C(C)OC(OC2C/C=C(/C)C3C=CC4C(OC5CC(OC6CCC(OC7CC(O)C(OC8CCC(O)C(C)O8)C(C)O7)C(C)O6)C(OC(C)=O)C(C)O5)C(C)CC(C)C4C3(C)/C(O)=C3/C(=O)OC4(CC(C=O)=CC(O)C4/C=C\2C)C3=O)CC1(C)[N+](=O)[O-] (configuration not stated)
- T/C (dose: 12.5 mg/kg/injection, schedule: Q04DX003 (sc), vehicle: other): 63 % of control
- T/C (dose: 25.0 mg/kg/injection, schedule: Q04DX003 (sc), vehicle: other): 75 % of control
- T/C (dose: 50.0 mg/kg/injection, schedule: Q04DX003 (sc), vehicle: other): 100 % of control
- T/C (dose: 100.0 mg/kg/injection, schedule: Q04DX003 (sc), vehicle: other): 93 % of control

SMILES: COC1C(CO)OC(n2cnc3c(=S)nc(N)[nH]c32)C1O (configuration not stated)
- T/C (dose: 75.0 mg/kg/injection, schedule: Q04DX003 (sc), vehicle: Klucel (hydroxypropylcellulose) (HPC)): 118 % of control
- T/C [12]: 110 % of control
- T/C [13]: 86 % of control
- T/C (dose: 600.0 mg/kg/injection, schedule: Q04DX003 (sc), vehicle: Klucel (hydroxypropylcellulose) (HPC)): 66 % of control

SMILES: O=[N+]([O-])c1nccn1CC(O)CO (configuration not stated)
- T/C (dose: 600.0 mg/kg/injection, schedule: Q04DX003 (sc), vehicle: saline): 91 % of control
- T/C (dose: 1200.0 mg/kg/injection, schedule: Q04DX003 (sc), vehicle: saline): 78 % of control
- T/C (dose: 2400.0 mg/kg/injection, schedule: Q04DX003 (sc), vehicle: saline): 108 % of control

SMILES: CC1(C)CC(=O)C(CSC(=O)c2ccccc2)C(=O)C1
- T/C [12]: 102 % of control
- T/C [13]: 119 % of control

SMILES: COc1c(O)c2c(c3cc(C(=O)N4CCc5c4c(O)c(OC)c4[nH]c(C(=O)N6CC7CC78C6=CC(=O)c6[nH]cc(C)c68)cc54)[nH]c13)CCN2C(N)=O (configuration not stated)
- T/C (dose: 6.25 micrograms/kg/injection, schedule: Q01DX010 (sc), vehicle: DMSO): 121 % of control
- T/C (dose: 12.5 micrograms/kg/injection, schedule: Q01DX010 (sc), vehicle: DMSO): 107 % of control
- T/C (dose: 25.0 micrograms/kg/injection, schedule: Q01DX010 (sc), vehicle: DMSO): 68 % of control
- T/C (dose: 50.0 micrograms/kg/injection, schedule: Q01DX010 (sc), vehicle: DMSO): 66 % of control

SMILES: CCN1/C(=C/C=C/C=C\C=C\c2sc3ccc4ccccc4c3[n+]2CC)Sc2ccc3ccccc3c21
- T/C (dose: 6.25 mg/kg/injection, schedule: Q04DX003 (sc), vehicle: saline with Tween-80): 156 % of control
- T/C (dose: 12.5 mg/kg/injection, schedule: Q04DX003 (sc), vehicle: saline with Tween-80): 116 % of control
- T/C (dose: 25.0 mg/kg/injection, schedule: Q04DX003 (sc), vehicle: saline with Tween-80): 78 % of control
- T/C (dose: 50.0 mg/kg/injection, schedule: Q04DX003 (sc), vehicle: saline with Tween-80): 122 % of control

SMILES: Cc1oc2c(C)c3oc(=O)cc(C)c3cc2c1CCl
- T/C [4]: 82 % of control
- T/C [5]: 95 % of control
- T/C [6]: 60 % of control
- T/C [11]: 76 % of control

SMILES: COc1cccc2c1C(=O)c1c(O)c3c(c(O)c1C2=O)CC(O)(/C(C)=N/NC(=O)CCCCC(=O)N/N=C(\C)C1(O)Cc2c(O)c4c(c(O)c2C(OC2CC(N)C(O)C(C)O2)C1)C(=O)c1c(OC)cccc1C4=O)CC3OC1CC(N)C(O)C(C)O1 (configuration not stated)
- T/C (dose: 12.5 mg/kg/injection, schedule: Q04DX003 (sc), vehicle: water): 28 % of control
- T/C (dose: 100.0 mg/kg/injection, schedule: Q04DX003 (sc), vehicle: water): 19 % of control

SMILES: Cc1c2cc[n+](C)cc2c(C)c2c1[nH]c1ccc(O)cc12
- T/C (dose: 1.5 mg/kg/injection, schedule: Q04DX003 (sc), vehicle: water): 151 % of control

SMILES: O/N=C/c1ccccc1O.O/N=C/c1ccccc1O.[Cu]
- T/C [7]: 72 % of control
- T/C [8]: 67 % of control and 72 % of control
- T/C [9]: 93 % of control

SMILES: COC1=C(OC)C(=O)C(Sc2ccc3ccccc3c2)=CC1=O
- T/C [3]: 85 % of control
- T/C [4]: 93 % of control
- T/C [8]: 115 % of control
- T/C [5]: 80 % of control
- T/C [9]: 104 % of control
- T/C [10]: 92 % of control
- T/C (dose: 1600.0 mg/kg/injection, schedule: Q04DX003 (sc), vehicle: saline with Tween-80): 79 % of control

SMILES: O=C(Nc1ccc(Cl)c(Cl)c1)Nc1c(Oc2ccc(Cl)c(Cl)c2)ccc(Cl)c1S(=O)(=O)O
- T/C (dose: 100.0 mg/kg/injection, schedule: Q01DX010 (sc), vehicle: Klucel (hydroxypropylcellulose) (HPC)): 43 % of control
- T/C (dose: 200.0 mg/kg/injection, schedule: Q01DX010 (sc), vehicle: Klucel (hydroxypropylcellulose) (HPC)): 50 % of control
- T/C (dose: 400.0 mg/kg/injection, schedule: Q01DX010 (sc), vehicle: Klucel (hydroxypropylcellulose) (HPC)): 69 % of control
- T/C (dose: 800.0 mg/kg/injection, schedule: Q01DX010 (sc), vehicle: Klucel (hydroxypropylcellulose) (HPC)): 60 % of control

SMILES: CN(CCN(C)C(=O)CCOS(C)(=O)=O)C(=O)CCOS(C)(=O)=O
- T/C (dose: 150.0 mg/kg/injection, schedule: Q04DX003 (sc), vehicle: saline): 58 % of control
- T/C (dose: 300.0 mg/kg/injection, schedule: Q04DX003 (sc), vehicle: saline): 27 % of control

SMILES: O=C1NC2(CCCCC2)C(=O)N1CCN(CCCl)CCCl
- T/C (dose: 4.0 mg/kg/injection, schedule: Q01DX010 (sc), vehicle: suspension in saline): 524 % of control
- T/C (dose: 6.0 mg/kg/injection, schedule: Q01DX010 (sc), vehicle: saline): 85 % of control
- T/C (dose: 6.0 mg/kg/injection, schedule: Q01DX010 (sc), vehicle: suspension in saline): 39 % of control and 58 % of control
- T/C (dose: 8.0 mg/kg/injection, schedule: Q01DX010 (sc), vehicle: suspension in saline): 244 % of control
- T/C (dose: 12.0 mg/kg/injection, schedule: Q01DX010 (sc), vehicle: saline): 31 % of control
- T/C (dose: 16.0 mg/kg/injection, schedule: Q01DX010 (sc), vehicle: suspension in saline): 115 % of control
- T/C (dose: 32.0 mg/kg/injection, schedule: Q01DX010 (sc), vehicle: suspension in saline): 63 % of control

SMILES: CC[C@@H](C)[C@@H]1NC(=O)C(NC(=O)C(CC(C)C)N(C)C(=O)C2CCCN2C(=O)C(C)O)C(C)OC(=O)C(Cc2ccc(OC)cc2)N(C)C(=O)C2CCCN2C(=O)C(CC(C)C)NC(=O)C(C)C(=O)C(C(C)C)OC(=O)C[C@H]1O (some centres not stated)
- T/C (dose: 75.0 micrograms/kg/injection, schedule: Q04DX003 (sc), vehicle: distilled water + alcohol): 28 % of control
- T/C (dose: 600.0 micrograms/kg/injection, schedule: Q04DX003 (sc), vehicle: distilled water + alcohol): 85 % of control and 87 % of control
- T/C (dose: 1200.0 micrograms/kg/injection, schedule: Q04DX003 (sc), vehicle: distilled water + alcohol): 87 % of control
